According to US8940771B2, “Organic compounds” (Novartis AG, priority 2007, dated 2015):

Legend:
Format in all cases: biochemical
[1] = target: PI3Kγ (p110γ(Δ143-[Met144-1102])-His, BV950) (Homo sapiens (Human), UniProt P48736); experiment: PI3K KinaseGlo assay, PI3Kgamma; details: 1 μM ATP, four-isoform table
[2] = target: PI3Kα (p85iSH2(461-568)-p110α(21-1068)-His, BV1075) (Homo sapiens (Human), UniProt P42336); experiment: PI3K KinaseGlo assay, PI3Kalpha; details: for IC50: KinaseGlo, 1 μM ATP; for Selectivity PI3Kalpha vs. PI3Kdelta: ratio of PI3Kdelta IC50 to PI3Kalpha IC50
PI3Kα (p85iSH2(461-568)-p110α(21-1068)-His, BV1075), sequence (P42336 other isoform, or with tags, fused parts or gaps): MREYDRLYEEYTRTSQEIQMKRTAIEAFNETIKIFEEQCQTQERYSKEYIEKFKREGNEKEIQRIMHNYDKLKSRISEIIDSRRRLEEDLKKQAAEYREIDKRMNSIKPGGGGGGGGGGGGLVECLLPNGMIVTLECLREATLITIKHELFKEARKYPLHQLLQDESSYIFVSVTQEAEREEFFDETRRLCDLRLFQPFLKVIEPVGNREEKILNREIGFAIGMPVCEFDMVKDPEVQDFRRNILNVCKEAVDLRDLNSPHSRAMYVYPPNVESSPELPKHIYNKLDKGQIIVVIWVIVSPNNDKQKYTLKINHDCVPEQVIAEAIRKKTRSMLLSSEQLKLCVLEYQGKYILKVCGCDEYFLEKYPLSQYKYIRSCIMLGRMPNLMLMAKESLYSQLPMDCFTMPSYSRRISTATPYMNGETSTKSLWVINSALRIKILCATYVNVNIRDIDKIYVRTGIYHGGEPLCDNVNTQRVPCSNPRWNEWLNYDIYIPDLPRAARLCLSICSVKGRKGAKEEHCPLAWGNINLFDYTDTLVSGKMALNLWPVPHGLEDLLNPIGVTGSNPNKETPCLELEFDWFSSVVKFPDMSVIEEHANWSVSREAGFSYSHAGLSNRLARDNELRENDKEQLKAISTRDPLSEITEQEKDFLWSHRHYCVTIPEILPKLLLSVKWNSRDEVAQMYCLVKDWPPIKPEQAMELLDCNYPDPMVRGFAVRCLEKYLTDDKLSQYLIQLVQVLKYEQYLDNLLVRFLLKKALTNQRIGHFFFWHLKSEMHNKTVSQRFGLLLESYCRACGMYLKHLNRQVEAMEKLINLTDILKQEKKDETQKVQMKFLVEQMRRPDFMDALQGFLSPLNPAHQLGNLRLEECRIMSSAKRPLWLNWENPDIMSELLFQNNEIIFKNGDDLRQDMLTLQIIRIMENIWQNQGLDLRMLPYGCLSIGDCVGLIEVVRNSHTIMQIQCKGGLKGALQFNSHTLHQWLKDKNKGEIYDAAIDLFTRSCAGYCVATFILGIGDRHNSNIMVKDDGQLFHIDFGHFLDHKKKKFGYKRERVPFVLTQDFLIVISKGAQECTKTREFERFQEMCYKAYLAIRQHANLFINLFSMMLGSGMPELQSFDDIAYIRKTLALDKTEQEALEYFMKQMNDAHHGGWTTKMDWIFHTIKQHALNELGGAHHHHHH

[3] = target: PI3Kδ (p85iSH2(461-568)-p110δ(2-1044)-His, BV1060) (Homo sapiens (Human), UniProt O00329); experiment: PI3K KinaseGlo assay, PI3Kdelta; details: 1 μM ATP, alpha vs. delta selectivity table
PI3Kδ (p85iSH2(461-568)-p110δ(2-1044)-His, BV1060), sequence (O00329 other isoform, or with tags, fused parts or gaps): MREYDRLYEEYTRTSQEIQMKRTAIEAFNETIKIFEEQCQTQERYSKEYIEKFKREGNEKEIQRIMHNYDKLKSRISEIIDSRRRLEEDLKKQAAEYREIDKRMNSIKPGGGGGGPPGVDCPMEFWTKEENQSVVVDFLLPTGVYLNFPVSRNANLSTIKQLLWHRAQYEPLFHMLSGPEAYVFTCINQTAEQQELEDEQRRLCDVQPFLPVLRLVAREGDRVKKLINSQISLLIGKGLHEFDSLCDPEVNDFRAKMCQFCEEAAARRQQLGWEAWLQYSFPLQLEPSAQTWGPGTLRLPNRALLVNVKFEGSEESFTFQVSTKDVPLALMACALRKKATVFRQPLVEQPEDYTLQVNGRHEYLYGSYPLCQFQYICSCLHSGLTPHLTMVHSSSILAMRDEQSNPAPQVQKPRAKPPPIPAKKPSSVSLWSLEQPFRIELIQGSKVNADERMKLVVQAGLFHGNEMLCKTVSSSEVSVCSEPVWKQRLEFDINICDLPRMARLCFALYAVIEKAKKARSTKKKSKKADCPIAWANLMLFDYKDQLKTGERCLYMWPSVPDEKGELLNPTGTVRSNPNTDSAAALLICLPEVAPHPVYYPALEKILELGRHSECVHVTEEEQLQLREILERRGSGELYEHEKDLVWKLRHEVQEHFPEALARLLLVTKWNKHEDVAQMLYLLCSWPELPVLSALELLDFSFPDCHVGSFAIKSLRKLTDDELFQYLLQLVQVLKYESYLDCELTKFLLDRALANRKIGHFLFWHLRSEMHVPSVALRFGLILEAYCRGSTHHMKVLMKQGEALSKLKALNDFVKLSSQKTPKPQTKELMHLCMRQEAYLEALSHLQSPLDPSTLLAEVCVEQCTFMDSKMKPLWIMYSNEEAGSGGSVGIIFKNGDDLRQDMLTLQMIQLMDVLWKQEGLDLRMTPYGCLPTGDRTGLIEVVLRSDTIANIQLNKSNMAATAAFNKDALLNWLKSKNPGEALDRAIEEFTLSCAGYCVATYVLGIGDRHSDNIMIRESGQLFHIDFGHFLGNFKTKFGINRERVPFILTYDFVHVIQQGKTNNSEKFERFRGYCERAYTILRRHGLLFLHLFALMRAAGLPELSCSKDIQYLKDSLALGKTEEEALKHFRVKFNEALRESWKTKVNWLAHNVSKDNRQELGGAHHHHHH

[4] = alpha vs. delta selectivity table

PI3Kγ (p110γ(Δ143-[Met144-1102])-His, BV950), sequence (P48736 other isoform, or with tags, fused parts or gaps): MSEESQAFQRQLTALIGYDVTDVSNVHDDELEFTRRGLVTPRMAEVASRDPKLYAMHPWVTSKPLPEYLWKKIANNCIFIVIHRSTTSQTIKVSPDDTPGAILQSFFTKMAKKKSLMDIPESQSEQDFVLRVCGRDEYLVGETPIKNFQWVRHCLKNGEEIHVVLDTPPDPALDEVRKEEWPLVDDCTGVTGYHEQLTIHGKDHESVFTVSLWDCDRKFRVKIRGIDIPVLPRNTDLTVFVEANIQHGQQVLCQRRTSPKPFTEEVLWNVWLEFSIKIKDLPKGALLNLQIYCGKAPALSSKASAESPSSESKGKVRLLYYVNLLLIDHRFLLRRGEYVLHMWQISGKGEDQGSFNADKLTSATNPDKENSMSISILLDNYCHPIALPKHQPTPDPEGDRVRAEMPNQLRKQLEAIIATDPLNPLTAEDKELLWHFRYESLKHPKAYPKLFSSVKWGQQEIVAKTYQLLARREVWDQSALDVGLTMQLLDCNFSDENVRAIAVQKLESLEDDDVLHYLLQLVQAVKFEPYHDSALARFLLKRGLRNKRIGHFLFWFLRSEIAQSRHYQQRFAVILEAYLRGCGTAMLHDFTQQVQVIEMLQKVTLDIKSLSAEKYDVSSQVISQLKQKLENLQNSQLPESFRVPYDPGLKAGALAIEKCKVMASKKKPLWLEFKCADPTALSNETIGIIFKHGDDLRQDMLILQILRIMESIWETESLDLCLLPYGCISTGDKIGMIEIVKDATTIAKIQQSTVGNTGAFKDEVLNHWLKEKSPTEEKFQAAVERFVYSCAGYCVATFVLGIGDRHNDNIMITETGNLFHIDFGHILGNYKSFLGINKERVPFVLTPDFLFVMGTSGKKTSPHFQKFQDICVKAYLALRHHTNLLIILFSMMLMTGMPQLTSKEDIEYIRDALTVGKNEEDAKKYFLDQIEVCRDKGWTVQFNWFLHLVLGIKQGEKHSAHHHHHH

Compound	IC50 [1] [µM]	IC50 [2, 4] [µM]	Selectivity PI3Kalpha vs. PI3Kdelta [2]	IC50 [3] [µM]	IC50 ([2]; 10 nM enzyme, 30 mins) [µM]
Cc1nc(NC(=O)N2CCC[C@@]2(C)C(N)=O)sc1-c1csc(CC2CC2)n1 [Example 151, (S)-2-Methyl-pyrrolidine-1,2-dicarboxylic acid 2-amide 1-[(2-cyclopropylmethyl-4′-methyl-[4,5′]bithiazolyl-2′-yl)-amide]]	0.928	–	–	–	–
Cc1nc(NC(=O)N2CCC[C@@]2(C)C(N)=O)sc1-c1ccnc(C(C)(C)C)n1 [Example 12, (S)-2-methyl-pyrrolidine-1,2-dicarboxylic acid 2-amide 1-{[5-(2-tert-butyl-pyrimidin-4-yl)-4-methyl-thiazol-2-yl]-amide}]	–	0.015	65-fold	0.974	–
Cc1nc(NC(=O)N2C[C@@H](F)C[C@H]2C(N)=O)sc1-c1ccnc(C(C)(C)C)n1 [Example 66]	–	0.04	32-fold	1.27	0.04
